Assay results: patent publication US10532048B2, “Tetrahydroisoquinolin-1-one derivative or salt thereof” (Seldar Pharma Inc., priority 2007, dated 2020)
Read-outs that look alike come from different tables or passages of the source.

Columns and labels:
BB2 receptor [1] = biological target: BB2 receptor (Homo sapiens (Human), UniProt P30550); assay: BB2 receptor binding test (125I [Tyr4] bombesin, PC-3 cell membrane sample); settings: 125I [Tyr4] bombesin 0.075 nM, room temperature 2 hours, read-out: IC50 (50% binding inhibition concentration)
Protocol: A BB2 receptor binding test was carried out using a membrane sample prepared from a human prostate cancer-derived PC-3 cell. […] The cells detached by a trypsin treatment were added with a 50 mM Tris-HCl buffer (pH 7.4, containing 0.2 mg/ml trypsin inhibitor and 0.2 mg/ml benzamidine), and homogenized by Polytron. The cell suspension was centrifuged at 1,500 rpm for 10 minutes, and the supernatant thus obtained was subjected to 1 hour of ultracentrifugation at 37,000×g. The precipitate was suspended in the aforementioned buffer to a concentration of 0.4 mg protein/ml, and stored at −80° C.
The BB2 receptor binding test was carried out by the following method, and the receptor antagonistic activity of a compound to be tested was calculated. […] Non-specific binding was measured using 1 μM of bombesin. After completion of the incubation, the reaction solution was filtered through a Whatman GF/B filter which had been soaked in 0.5% polyethyleneimine. The radioactivity on the filter was measured using a microplate scintillation counter (Top Count, Perkin-Elmer Co., Ltd.). Further, Ex represents the number of the Example compound.

male Wistar rat = assay: Restraint stress-induced defecation model; type: in vivo; settings: read-out: Inhibitory Rate (%) of number of feces excreted
Protocol: The compound to be tested of the present test was used by dissolving in water for injection containing 20% propylene glycol+20% Tween 80 or a 0.5% MC (methyl cellulose) solution.
The number of feces excreted during a period from the restriction commencement to 1 hour thereafter was measured. Normal group was put into a separate cage, and number of feces excreted during 1 hour was measured in the same manner.

5-HT3 receptor = 5-HT3 receptor (Homo sapiens (Human), UniProt P46098); settings: IBS patients; cited from earlier work
BB2 receptor [2] = settings: stress-induced defecation model; cited from earlier work
BB2 receptor [3] = settings: abdominal pain model induced by large intestinal distension; cited from earlier work
[4] = oral administration 1 mg/kg, 15 minutes before restraint, feces counted for 1 hour

Sequence of BB2 receptor (Homo sapiens (Human), UniProt P30550) (P30550 whole entry): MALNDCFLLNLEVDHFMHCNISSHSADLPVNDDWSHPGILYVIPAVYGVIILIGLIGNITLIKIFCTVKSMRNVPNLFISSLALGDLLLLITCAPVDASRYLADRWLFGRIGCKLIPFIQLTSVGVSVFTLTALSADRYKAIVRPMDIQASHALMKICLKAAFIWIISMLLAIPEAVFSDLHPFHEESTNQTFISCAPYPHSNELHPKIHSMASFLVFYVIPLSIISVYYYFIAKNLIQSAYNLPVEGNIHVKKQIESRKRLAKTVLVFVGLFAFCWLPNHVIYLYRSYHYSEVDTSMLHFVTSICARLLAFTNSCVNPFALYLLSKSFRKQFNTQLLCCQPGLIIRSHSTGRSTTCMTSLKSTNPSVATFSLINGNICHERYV
Sequence of 5-HT3 receptor (P46098 24-478): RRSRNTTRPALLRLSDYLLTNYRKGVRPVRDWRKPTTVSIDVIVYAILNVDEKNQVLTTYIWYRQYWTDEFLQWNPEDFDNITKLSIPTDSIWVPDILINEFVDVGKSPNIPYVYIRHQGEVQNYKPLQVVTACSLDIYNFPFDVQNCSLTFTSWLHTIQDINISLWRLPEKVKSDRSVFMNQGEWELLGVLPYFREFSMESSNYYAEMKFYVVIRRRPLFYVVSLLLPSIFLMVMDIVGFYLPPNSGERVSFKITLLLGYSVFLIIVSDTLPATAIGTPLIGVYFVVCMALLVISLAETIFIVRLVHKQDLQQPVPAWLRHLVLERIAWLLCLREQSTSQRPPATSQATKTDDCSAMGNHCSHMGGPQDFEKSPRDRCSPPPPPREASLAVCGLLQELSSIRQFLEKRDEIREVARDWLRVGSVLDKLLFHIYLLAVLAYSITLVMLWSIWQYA

Work on `O=C(NCCc1ccccn1)[C@@H]1c2ccccc2C(=O)N([C@H](CO)Cc2ccccc2)[C@H]1c1ccc(Cl)cc1Cl` [Ex 61] yielded an IC50 (BB2 receptor [1]) of 12.8 nM.
In the case of `C[C@@H](NC(=O)[C@@H]1c2ccccc2C(=O)N([C@H]2CCCC[C@@H]2NS(C)(=O)=O)[C@H]1c1ccc(Cl)cc1Cl)c1ccccc1` [Ex 236], the IC50 (BB2 receptor [1]) is reported as 3 nM.
`CS(=O)(=O)N[C@H]1CCCC[C@@H]1N1C(=O)c2ccccc2[C@@H](C(=O)NOCc2cc(C(=O)O)cs2)[C@@H]1c1ccc(Cl)cc1Cl` [Ex 542] showed an IC50 (BB2 receptor [1]) of 4.7 nM and an inhibition in vivo at 1 mg/kg (male Wistar rat; 1 h) of 40%.
`CS(=O)(=O)N[C@H]1CCCC[C@@H]1N1C(=O)c2ccccc2[C@@H](C(=O)NOCc2cccc(C(=O)O)c2)[C@@H]1c1ccc(Cl)cc1Cl` [Ex 560] gave an IC50 (BB2 receptor [1]) of 4.8 nM and an inhibition in vivo at 1 mg/kg (male Wistar rat; [4]) of 62.1%.
`CS(=O)(=O)N[C@H]1CCCC[C@@H]1N1C(=O)c2ccccc2[C@@H](C(=O)NOCc2ccccn2)[C@@H]1c1ccc(Cl)cc1Cl` [Ex 589] showed an IC50 (BB2 receptor [1]) of 5.7 nM and an inhibition in vivo at 1 mg/kg (male Wistar rat; [4]) of 73.9%.
In the case of `CS(=O)(=O)N[C@H]1CCCC[C@@H]1N1C(=O)c2ccccc2[C@@H](C(=O)NOCc2cccc(OCC(=O)O)c2)[C@@H]1c1ccc(Cl)cc1Cl` [Ex 631], the IC50 (BB2 receptor [1]) is reported as 4.5 nM and the inhibition in vivo at 1 mg/kg (male Wistar rat; [4]) is reported as 53.8%.
With `CS(=O)(=O)NC(=O)c1cccc(CCNC(=O)[C@@H]2c3ccccc3C(=O)N([C@H]3CCCC[C@@H]3NS(C)(=O)=O)[C@H]2c2ccc(Cl)cc2Cl)c1` [Ex 700] the IC50 (BB2 receptor [1]) was 6.7 nM and the inhibition in vivo at 1 mg/kg (male Wistar rat; [4]) was 69.8%.
Work on `CS(=O)(=O)N[C@H]1CCCC[C@@H]1N1C(=O)c2ccccc2[C@@H](C(=O)NCCc2ccc(CC(=O)O)cc2)[C@@H]1c1ccc(Cl)cc1Cl` [Ex 701] yielded an IC50 (BB2 receptor [1]) of 7.4 nM and an inhibition in vivo at 1 mg/kg (male Wistar rat; [4]) of 41.3%.
Compound `CS(=O)(=O)N[C@H]1CCCC[C@@H]1N1C(=O)c2ccccc2[C@@H](C(=O)NOCc2cccc(OCCCC(=O)O)c2)[C@@H]1c1ccc(Cl)cc1Cl` [Ex 709] has an IC50 (BB2 receptor [1]) of 8.9 nM and an inhibition in vivo at 1 mg/kg (male Wistar rat; [4]) of 41.5%.
Work on `CS(=O)(=O)N[C@H]1CCCC[C@@H]1N1C(=O)c2ccccc2[C@@H](C(=O)NCCc2cccc(C(F)(F)C(=O)O)c2)[C@@H]1c1ccc(Cl)cc1Cl` [Ex 712] yielded an IC50 (BB2 receptor [1]) of 6.7 nM and an inhibition in vivo at 1 mg/kg (male Wistar rat; [4]) of 55%.
With `CS(=O)(=O)N[C@H]1CCCC[C@@H]1N1C(=O)c2ccccc2[C@@H](C(=O)NOCc2ccc(CC(=O)O)cc2)[C@@H]1c1ccc(Cl)cc1Cl` [Ex 856] the IC50 (BB2 receptor [1]) was 6.8 nM and the inhibition in vivo at 1 mg/kg (male Wistar rat; [4]) was 61.4%.
In the case of `Cc1[nH]cnc1CN1CCc2c(c3ccccc3n2C)C1=O` [alosetron], the “improving rate for abdominal symptoms and diarrhea” value (5-HT3 receptor) is listed as 40 to 60%.
For RC-3095, the “efficacy for abnormal bowel motility” value (BB2 receptor [2]) is listed as “effective” and the “efficacy for abdominal symptom (abdominal muscle contraction reaction as index)” value (BB2 receptor [3]) is listed as “effective”.
